# From patent publication US8629132B2, “Kinase inhibitors” (Genosco, priority 2009, dated 2014)
# Experiments:
# K1T = K1T (Homo sapiens, UniProt P10721); test: Kinase inhibition assay: KIT; type: biochemical
# [1] = system: TNF-α release in THP-1 cells; test: SYK independent TNF-α release assay (LPS stimulation); type: cell-based; details: Homo sapiens, 18-hour incubation
# Method: Compounds of the present invention are tested for their effects on TNF-α release in human acute monocytic leukimia cell line (THP-1) to illustrate potential efficacy at the cellular level. TNF-α is a cytokine involved in systemic inflammation and is a member of a group of cytokines that stimulate the acute phase reaction. The primary role of TNF-α is in the regulation of immune cells. TNF-α is known to induce apoptotic cell death and inflammation and to inhibit early tumorigenesis and viral replication. Dysregulation and, in particular, overproduction of TNF-α have been implicated in a variety of human diseases, autoimmune disease, inflammation, arthritis and cancer.
# Production or release of TNF-α is controlled by type of stimulus to which the cell responds. SYK activity is involved in mediating TNF-α production. When stimulated by IgG, cells increase TNF-α production in a SYK dependent manner (i.e., the SYK dependent pathway). However, when stimulated by lipopolysaccharide (LPS), they produce TNF-α in a SYK independent manner.
# For SYK independent TNF-α release assay (i.e., via lipopolysaccharide (LPS)-stimulation), THP-1 cells derived from human monocytic cells were obtained from the American Type Culture Collection (ATCC, Manassas, Va.). This cell line was maintained with an RPMI medium (GIBCO™) containing 10 fetal bovine serum (FBS, GIBCO™) and 0.05 mM 2-mercaptoethanol. The THP-1 cells were seeded at 1×10^5 cells/100 μL/well into 96-well culture plates, and treated with lipopolysaccharide (1 μg/ml), and serially diluted compound was then added. After an 18-hour incubation period at 37° C., supernatants were collected for the determination of the TNF-α level by ELISA, and the remaining cells were subjected to an MTT assay to determine the cytotoxic effects.
# TAK1 = target: T1, TAK1 (Homo sapiens, UniProt O43318); test: In vitro kinase inhibition profile (Ambit Biosciences); type: binding; details: reported as percent control, lower numbers indicate stronger activities
# T1 construct: purchased Ambit Biosciences
# Method: (§1) Up to 518 different kinases have been identified in humans. To determine the scope of inhibitory effects of a representative compound of Formula (I) on known kinases, Compound 82 was tested against 104 commercially available kinases (Ambit Biosciences™). 104 kinases included ABL1(E255K)-phosphorylated, ABL1(T315I)-phosphorylated, ABL1-phosphorylated, ACVR1B, ADCK3, AKT1, AKT2, ALK, AURKA, AURKB, AXL, BMPR2, BRAF, BRAF(V600E), BTK, CDK11, CDK2, CDK3, CDK7, CDK9, CHEK1, CSF1R, CSNK1D, CSNK1G2, DCAMKL1, DYRK1B, EGFR, EGFR(L858R), EPHA2, ERBB2, ERBB4, ERK1, FAK, FGFR2, FGFR3, FLT1, FLT3, FLT4, GSK3B, IGF1R, IKK-α, IKK-β, INSR, JAK2(JH1domain-catalytic), JAK3 (JH1 domain-catalytic), JNK 1, JNK2, JNK3, KIT, KIT(D816V), KIT(V559D,T6701), LKB1, LRRK2, LRRK2(G2019S), MAP3K4, MAPKAPK2, MARKS, MEK1, MEK2, MET, MKNK1, MKNK2, MLK1, MTOR, p38-alpha, p38-beta, PAK1, PAK2, PAK-4, PCTK1, PDGFRA, PDGFRB, PDPK1, PIK3C2B, PIK3CA, PIK3CG, PIM1, PIM2, PIM3, PKAC-alpha, PLK1, PLK3, PLK4, PRKCE, PYK2, RAF1, RET, R10K2, ROCK2, RSK2, SNARK, SRC, SRPK3, SYK, TAK1, TGFBR1, TIE2, TRKA, TSSK1B, TYK2(JH1domain-catalytic), ULK2, VEGFR2, YANK3 and ZAP70.
# (§2) Inhibition activity of Compound 82 was reported as percent control where lower numbers indicate stronger activities.
# PDGFRB = target: T2, PDGFRB (Homo sapiens, UniProt P09619); test: as above; type: binding; details: reported as percent control, lower numbers indicate stronger activities
# T2 construct: purchased Ambit Biosciences
# Method: as §1, §2
# SRPK3 = target: T3, SRPK3 (Homo sapiens, UniProt Q9UPE1); test: as above; type: binding; details: reported as percent control, lower numbers indicate stronger activities
# T3 construct: purchased Ambit Biosciences
# Method: as §1, §2
# ZAP70 = target: T4, ZAP70 (Homo sapiens, UniProt P43403); test: as above; type: binding; details: reported as percent control, lower numbers indicate stronger activities
# T4 construct: Purified full-length human SYK, ZAP70, PIM1, PYK2; purchased Carna Biosciences
# T4 sequence (P43403 1-619): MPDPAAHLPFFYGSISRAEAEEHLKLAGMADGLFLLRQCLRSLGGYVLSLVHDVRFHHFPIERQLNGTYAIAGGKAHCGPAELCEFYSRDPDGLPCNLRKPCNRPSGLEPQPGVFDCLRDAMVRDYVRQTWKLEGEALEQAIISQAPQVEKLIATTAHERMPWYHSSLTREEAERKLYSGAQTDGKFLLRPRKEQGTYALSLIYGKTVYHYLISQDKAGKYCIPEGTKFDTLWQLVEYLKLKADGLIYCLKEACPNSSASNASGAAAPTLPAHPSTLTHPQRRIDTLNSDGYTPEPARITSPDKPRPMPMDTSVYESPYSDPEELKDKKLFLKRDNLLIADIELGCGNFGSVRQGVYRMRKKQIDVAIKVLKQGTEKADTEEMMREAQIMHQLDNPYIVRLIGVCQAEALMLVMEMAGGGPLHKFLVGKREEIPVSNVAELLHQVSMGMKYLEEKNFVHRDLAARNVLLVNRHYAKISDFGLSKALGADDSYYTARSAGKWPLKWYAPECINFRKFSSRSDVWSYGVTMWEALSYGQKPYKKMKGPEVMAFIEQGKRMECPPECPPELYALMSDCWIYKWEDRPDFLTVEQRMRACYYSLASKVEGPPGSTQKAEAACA
# Method: as §1, §2
# SNARK = target: T5, SNARK (Homo sapiens, UniProt Q9H093); test: as above; type: binding; details: reported as percent control, lower numbers indicate stronger activities
# T5 construct: purchased Ambit Biosciences
# Method: as §1, §2
# MLK1 = target: T6, MLK1 (Homo sapiens, UniProt P80192); test: as above; type: binding; details: reported as percent control, lower numbers indicate stronger activities
# T6 construct: purchased Ambit Biosciences
# Method: as §1, §2
# TYK2 = target: T7, TYK2 (Homo sapiens, UniProt P29597); test: as above; type: binding; details: reported as percent control, lower numbers indicate stronger activities
# T7 construct: TYK2(JH1domain-catalytic); purchased Ambit Biosciences
# Method: as §1, §2
# SYK = target: T8, SYK (Homo sapiens, UniProt P43405); test: as above; type: binding; details: reported as percent control, lower numbers indicate stronger activities
# T8 construct: Purified full-length human SYK, ZAP70, PIM1, PYK2; purchased Carna Biosciences
# Method: as §1, §2
# RET = target: T9, RET (Homo sapiens, UniProt P07949); test: as above; type: binding; details: reported as percent control, lower numbers indicate stronger activities
# T9 construct: purchased Ambit Biosciences
# Method: as §1, §2
# PLK3 = target: T10, PLK3 (Homo sapiens, UniProt Q9H4B4); test: as above; type: binding; details: reported as percent control, lower numbers indicate stronger activities
# T10 construct: purchased Ambit Biosciences
# Method: as §1, §2
# Chain of K1T (P10721 26-976): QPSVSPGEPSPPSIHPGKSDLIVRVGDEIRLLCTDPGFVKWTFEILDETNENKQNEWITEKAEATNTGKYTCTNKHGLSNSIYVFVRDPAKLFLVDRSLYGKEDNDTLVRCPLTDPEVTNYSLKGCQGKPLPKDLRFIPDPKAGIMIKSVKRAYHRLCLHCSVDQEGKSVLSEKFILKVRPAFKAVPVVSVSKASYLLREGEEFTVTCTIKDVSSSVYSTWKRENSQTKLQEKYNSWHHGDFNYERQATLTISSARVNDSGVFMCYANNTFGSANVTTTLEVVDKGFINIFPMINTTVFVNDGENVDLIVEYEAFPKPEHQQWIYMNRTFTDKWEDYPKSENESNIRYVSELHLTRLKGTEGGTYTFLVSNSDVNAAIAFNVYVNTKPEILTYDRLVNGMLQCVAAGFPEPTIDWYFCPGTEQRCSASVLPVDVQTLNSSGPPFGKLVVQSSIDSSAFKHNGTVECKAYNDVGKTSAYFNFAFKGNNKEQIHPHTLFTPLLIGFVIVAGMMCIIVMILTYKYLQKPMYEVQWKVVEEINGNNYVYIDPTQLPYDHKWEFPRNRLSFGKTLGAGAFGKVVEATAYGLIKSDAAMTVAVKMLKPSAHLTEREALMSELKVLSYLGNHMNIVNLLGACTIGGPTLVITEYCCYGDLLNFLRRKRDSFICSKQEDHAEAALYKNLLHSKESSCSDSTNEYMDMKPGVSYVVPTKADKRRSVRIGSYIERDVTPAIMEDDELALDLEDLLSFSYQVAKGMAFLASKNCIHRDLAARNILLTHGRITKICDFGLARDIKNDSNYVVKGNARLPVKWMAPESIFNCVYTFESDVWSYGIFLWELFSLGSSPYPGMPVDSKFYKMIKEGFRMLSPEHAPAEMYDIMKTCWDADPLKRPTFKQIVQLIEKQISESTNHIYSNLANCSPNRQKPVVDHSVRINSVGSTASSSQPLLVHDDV
# T6 sequence (P80192 whole entry): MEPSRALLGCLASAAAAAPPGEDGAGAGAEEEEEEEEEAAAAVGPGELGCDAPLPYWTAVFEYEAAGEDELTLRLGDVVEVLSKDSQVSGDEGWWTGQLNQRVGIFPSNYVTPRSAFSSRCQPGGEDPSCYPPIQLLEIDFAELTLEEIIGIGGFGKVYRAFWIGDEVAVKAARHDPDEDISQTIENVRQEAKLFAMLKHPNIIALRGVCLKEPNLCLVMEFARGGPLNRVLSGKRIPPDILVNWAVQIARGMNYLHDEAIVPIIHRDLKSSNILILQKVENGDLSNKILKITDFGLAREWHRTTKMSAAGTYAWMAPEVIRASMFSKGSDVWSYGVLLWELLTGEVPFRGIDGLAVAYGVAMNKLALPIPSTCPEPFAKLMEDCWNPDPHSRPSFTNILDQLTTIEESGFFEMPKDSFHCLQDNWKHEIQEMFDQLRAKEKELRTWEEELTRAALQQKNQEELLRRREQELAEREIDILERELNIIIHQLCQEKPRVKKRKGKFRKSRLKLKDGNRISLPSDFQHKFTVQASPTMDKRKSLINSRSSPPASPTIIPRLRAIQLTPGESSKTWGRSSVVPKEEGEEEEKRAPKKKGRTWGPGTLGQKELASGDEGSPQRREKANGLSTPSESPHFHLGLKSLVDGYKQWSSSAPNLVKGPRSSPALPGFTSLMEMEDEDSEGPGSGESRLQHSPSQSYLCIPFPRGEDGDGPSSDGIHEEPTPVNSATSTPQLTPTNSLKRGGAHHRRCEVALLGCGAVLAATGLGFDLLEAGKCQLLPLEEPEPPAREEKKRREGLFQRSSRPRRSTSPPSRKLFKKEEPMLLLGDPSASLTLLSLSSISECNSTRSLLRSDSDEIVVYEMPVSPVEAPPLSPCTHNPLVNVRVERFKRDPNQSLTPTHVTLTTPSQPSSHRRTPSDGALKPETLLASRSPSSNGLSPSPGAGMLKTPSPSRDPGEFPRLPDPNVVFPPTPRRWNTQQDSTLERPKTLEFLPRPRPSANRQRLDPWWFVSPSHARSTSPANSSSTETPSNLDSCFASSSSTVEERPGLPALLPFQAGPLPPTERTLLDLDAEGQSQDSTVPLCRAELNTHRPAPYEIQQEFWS
# T7 sequence (P29597 897-1176 limits assumed): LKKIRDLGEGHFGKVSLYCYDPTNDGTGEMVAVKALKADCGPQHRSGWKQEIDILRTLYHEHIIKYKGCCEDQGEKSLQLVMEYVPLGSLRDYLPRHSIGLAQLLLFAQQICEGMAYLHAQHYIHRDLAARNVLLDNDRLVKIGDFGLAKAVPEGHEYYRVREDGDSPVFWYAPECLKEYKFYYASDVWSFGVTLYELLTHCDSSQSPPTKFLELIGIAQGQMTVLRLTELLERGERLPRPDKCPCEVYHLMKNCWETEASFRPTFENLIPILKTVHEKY
# T1 sequence (O43318 whole entry): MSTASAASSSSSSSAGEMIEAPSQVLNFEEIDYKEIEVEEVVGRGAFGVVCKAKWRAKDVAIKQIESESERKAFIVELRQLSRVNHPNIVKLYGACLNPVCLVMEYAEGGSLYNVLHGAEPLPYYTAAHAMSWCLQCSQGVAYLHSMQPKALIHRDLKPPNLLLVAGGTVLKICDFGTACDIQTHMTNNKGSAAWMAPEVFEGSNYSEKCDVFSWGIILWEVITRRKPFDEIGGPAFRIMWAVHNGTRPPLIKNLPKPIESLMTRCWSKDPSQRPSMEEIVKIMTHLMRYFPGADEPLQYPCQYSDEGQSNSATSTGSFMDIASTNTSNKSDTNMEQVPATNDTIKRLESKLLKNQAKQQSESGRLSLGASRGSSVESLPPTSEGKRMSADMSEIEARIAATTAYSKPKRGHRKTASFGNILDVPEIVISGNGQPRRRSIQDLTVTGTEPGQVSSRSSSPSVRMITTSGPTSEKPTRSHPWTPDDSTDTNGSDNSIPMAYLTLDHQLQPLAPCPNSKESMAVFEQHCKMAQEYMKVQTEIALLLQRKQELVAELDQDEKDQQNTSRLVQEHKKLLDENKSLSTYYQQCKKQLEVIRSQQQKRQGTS
# T3 sequence (Q9UPE1 whole entry): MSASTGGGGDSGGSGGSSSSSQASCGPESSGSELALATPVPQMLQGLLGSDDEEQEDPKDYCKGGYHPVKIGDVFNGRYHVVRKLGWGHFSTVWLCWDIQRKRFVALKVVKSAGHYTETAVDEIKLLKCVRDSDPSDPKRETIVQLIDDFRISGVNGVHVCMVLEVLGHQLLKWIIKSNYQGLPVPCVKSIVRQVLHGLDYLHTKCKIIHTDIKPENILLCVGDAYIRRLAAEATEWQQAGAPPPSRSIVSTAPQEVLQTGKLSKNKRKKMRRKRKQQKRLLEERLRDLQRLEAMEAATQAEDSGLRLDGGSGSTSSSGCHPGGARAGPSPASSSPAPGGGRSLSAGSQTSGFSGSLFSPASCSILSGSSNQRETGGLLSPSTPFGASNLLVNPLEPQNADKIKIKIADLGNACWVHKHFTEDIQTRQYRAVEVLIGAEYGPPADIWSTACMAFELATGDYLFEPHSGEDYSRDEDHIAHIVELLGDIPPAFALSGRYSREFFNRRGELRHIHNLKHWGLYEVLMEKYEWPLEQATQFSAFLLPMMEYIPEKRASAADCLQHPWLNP
# T2 sequence (P09619 33-1106): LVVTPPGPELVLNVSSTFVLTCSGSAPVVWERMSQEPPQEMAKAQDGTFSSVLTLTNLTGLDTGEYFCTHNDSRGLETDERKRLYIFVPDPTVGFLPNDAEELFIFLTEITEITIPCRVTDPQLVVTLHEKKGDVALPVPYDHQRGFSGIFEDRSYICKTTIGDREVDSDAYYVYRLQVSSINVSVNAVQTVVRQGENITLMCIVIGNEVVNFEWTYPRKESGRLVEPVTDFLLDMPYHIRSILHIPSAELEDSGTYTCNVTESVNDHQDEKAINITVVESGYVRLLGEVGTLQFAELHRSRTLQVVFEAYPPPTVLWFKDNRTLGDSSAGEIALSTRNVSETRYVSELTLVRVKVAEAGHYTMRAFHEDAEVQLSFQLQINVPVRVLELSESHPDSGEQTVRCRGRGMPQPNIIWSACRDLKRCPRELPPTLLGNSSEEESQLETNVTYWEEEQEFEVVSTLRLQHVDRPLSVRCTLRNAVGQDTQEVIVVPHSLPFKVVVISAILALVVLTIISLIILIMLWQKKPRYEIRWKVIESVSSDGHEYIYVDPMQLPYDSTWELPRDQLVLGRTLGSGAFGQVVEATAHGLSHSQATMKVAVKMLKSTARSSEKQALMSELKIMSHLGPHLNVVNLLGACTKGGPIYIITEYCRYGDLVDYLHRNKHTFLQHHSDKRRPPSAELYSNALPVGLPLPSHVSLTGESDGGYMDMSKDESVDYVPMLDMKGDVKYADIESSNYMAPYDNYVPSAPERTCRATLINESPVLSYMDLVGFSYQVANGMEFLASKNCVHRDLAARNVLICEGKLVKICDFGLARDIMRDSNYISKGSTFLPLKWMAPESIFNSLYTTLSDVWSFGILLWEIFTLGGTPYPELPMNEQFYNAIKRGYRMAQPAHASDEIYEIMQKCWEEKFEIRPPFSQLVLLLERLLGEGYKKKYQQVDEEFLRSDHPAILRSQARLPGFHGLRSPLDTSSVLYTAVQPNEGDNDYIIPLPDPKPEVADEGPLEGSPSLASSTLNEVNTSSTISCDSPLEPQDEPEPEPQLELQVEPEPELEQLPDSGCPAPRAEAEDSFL
Compound,IC50 (K1T),inhibition at 0.3 µM ([1]; 0.3 μM),inhibition at 1 µM ([1]; 1 μM),% of control remaining TAK1 binding (TAK1),% of control PDGFRB (PDGFRB),% of control SRPK3 binding (SRPK3),% of control ZAP70 binding (lower = stronger) (ZAP70),% of control SNARK (SNARK),% of control (MLK1),% of control (TYK2),% of control SYK (SYK),"RET binding, % of control (RET)",percent of control (lower = stronger binding) (PLK3)
"COc1cc(Nc2ncc(C)c(-n3cc(C)c(CO)c3)n2)cc(OC)c1OC [Compound 21, (4-methyl-1-(5-methyl-2-(3,4,5-trimethoxyphenylamino)pyrimidin-4-yl)-1H-pyrrol-3-yl)methanol]",137 nM,,,,,,,,,,,,
"Cc1cc(C)cc(Nc2ncc(F)c(-n3cc(C)c(CN4CC[C@@H](O)C4)c3)n2)c1 [Compound 82, (R)-1-((1-(2-(3,5-dimethylphenyl-amino)-5-fluoropyrimidin-4-yl)-4-methyl-1H-pyrrol-3-yl)methyl) pyrrolidin-3-ol]",,18.1%,21.5%,22%,1.8%,25%,34%,4.2%,22%,21%,1%,32%,11%
